The structures appear in SMILES notation. Where a SMILES comes first, the peptide text is derived from it.

In the assay the target is HLA-A02 (Homo sapiens, UniProt P04439, D140Y/D185E/D98H/E176V/E277Q/G131W/G231S/I119V/I121R/I166T/I218V/L300P/L318F/N151K/N90K/P208A/P217A/Q86G/Q94H/R138H/R169H/T345S). The assay is described as follows: Competition binding assay using soluble HLA class I.
For `CSCC[C@H](N)C(=O)N[C@@H](C)C(=O)N[C@@H](CC(C)C)C(=O)N[C@@H](Cc1ccc(O)cc1)C(=O)N[C@@H](CC(=O)O)C(=O)N[C@H](C(=O)N[C@H](C(=O)N[C@@H](CO)C(=O)N[C@H](C(=O)O)[C@@H](C)O)C(C)C)C(C)C` (H-MALYDVVST-OH; N-terminus and C-terminus assumed), the Ki – broadly, the equilibrium dissociation constant of an inhibitor or competing ligand from its target – came to 1140 nM.

On to `CC(C)C[C@H](NC(=O)[C@H](C)NC(=O)[C@H](CC(C)C)NC(=O)[C@H](CC(C)C)NC(=O)[C@H](CC(C)C)NC(=O)[C@H](CC(C)C)NC(=O)[C@H](CC(C)C)NC(=O)[C@H](CC(C)C)NC(=O)[C@@H]1CCCN1)C(=O)O` [PLLLLLLAL] (H-PLLLLLLAL-OH), for which the Ki amounted to 6550 nM. For the compound `CC[C@H](C)[C@H](NC(=O)[C@@H](N)Cc1ccc(O)cc1)C(=O)N1CCC[C@H]1C(=O)N[C@@H](CC(C)C)C(=O)N[C@H](C(=O)NCC(=O)N[C@@H](C)C(=O)N1CCC[C@H]1C(=O)N[C@@H](CC(C)C)C(=O)O)C(C)C`, the IC50 (in general, the concentration that inhibits the measured activity by half) turned out to be 337 nM and the affinity corresponds to a Ki of 77 nM. On to `CC[C@H](C)[C@H](NC(=O)[C@@H](N)CCC(N)=O)C(=O)N[C@H](C(=O)NCC(=O)NCC(=O)N[C@H](C(=O)N[C@@H](Cc1ccc(O)cc1)C(=O)N[C@@H](CC(C)C)C(=O)N[C@@H](CC(C)C)C(=O)O)C(C)C)C(C)C`, for which the IC50 was 228 nM.

Take `CC(C)C[C@H](NC(=O)[C@@H](N)Cc1ccc(O)cc1)C(=O)N[C@@H](Cc1ccccc1)C(=O)N[C@@H](CC(N)=O)C(=O)N[C@@H](Cc1c[nH]c2ccccc12)C(=O)N[C@@H](C)C(=O)N[C@H](C(=O)N[C@@H](CCCNC(=N)N)C(=O)N[C@H](C(=O)O)[C@@H](C)O)C(C)C` (H-YLFNWAVRT-OH; N-terminus and C-terminus assumed): the IC50 worked out at 29 nM and the Ki was found to be 29 nM. The compound `CC(C)C[C@H](NC(=O)[C@@H](NC(=O)[C@@H](N)CC(C)C)C(C)C)C(=O)N[C@@H](CC(N)=O)C(=O)N1CCC[C@H]1C(=O)N[C@@H](CO)C(=O)N[C@H](C(=O)N[C@@H](C)C(=O)N[C@@H](C)C(=O)O)C(C)C` registered a Ki of 1680 nM.

Compound `CC(C)C[C@H](NC(=O)[C@@H](NC(=O)[C@@H](NC(=O)[C@H](CC(C)C)NC(=O)[C@@H](N)CCCNC(=N)N)C(C)C)C(C)C)C(=O)N[C@@H](C)C(=O)N[C@H](C(=O)N[C@@H](C)C(=O)N[C@H](C(=O)O)[C@@H](C)O)[C@@H](C)O` yielded a Ki of 16700 nM. The same measure, in the same setting: to `CC[C@H](C)[C@H](NC(=O)[C@H](Cc1c[nH]cn1)NC(=O)[C@@H](NC(=O)[C@H](CC(C)C)NC(=O)CNC(=O)[C@@H](NC(=O)[C@H](Cc1ccccc1)NC(=O)[C@@H](NC(=O)[C@@H](N)CO)C(C)C)[C@@H](C)O)[C@@H](C)O)C(=O)O` belongs 84 nM.

The compound `CC(C)C[C@H](NC(=O)[C@H](CCCNC(=N)N)NC(=O)[C@H](Cc1ccc(O)cc1)NC(=O)[C@@H]1CCCN1C(=O)[C@H](Cc1ccc(O)cc1)NC(=O)[C@H](CC(=O)O)NC(=O)[C@@H](NC(=O)[C@H](CC(C)C)NC(=O)[C@@H](N)CS)C(C)C)C(=O)O` (H-CLVDYPYRL-OH; N-terminus and C-terminus assumed) displayed an IC50 of 437 nM and a Ki of 437 nM. In turn, `CC(C)C[C@H](NC(=O)[C@@H]1CCCN1C(=O)[C@H](Cc1c[nH]c2ccccc12)NC(=O)[C@@H]1CCCN1C(=O)[C@H](Cc1ccc(O)cc1)NC(=O)CNC(=O)[C@@H]1CCCN1C(=O)[C@H](CCC(N)=O)NC(=O)[C@H](C)N)C(=O)O` (H-AQPGYPWPL-OH; N-terminus and C-terminus assumed) displayed a Ki of 382 nM. Turning to `CC(C)C[C@H](NC(=O)[C@@H](NC(=O)[C@H](CC(C)C)NC(=O)[C@@H](NC(=O)[C@@H](N)CCCCN)C(C)C)C(C)C)C(=O)N[C@@H](CC(N)=O)C(=O)N1CCC[C@H]1C(=O)N[C@@H](CO)C(=O)N[C@H](C(=O)O)C(C)C` (H-KVLVLNPSV-OH), the IC50 came out at 50 nM and the Ki was determined as 50 nM. `CC[C@H](C)[C@H](NC(=O)[C@H](CO)NC(=O)[C@H](Cc1ccccc1)NC(=O)[C@H](CO)NC(=O)[C@H](CS)NC(=O)CNC(=O)[C@@H]1CCCN1C(=O)[C@H](CC(C)C)NC(=O)[C@@H](N)CC(N)=O)C(=O)O` (H-NLPGCSFSI-OH): the IC50 was determined as 83 nM and the Ki came out at 70 nM. `CC(C)C[C@H](NC(=O)[C@H](CC(C)C)NC(=O)[C@H](Cc1c[nH]c2ccccc12)NC(=O)CNC(=O)[C@H](C)NC(=O)[C@H](Cc1c[nH]c2ccccc12)NC(=O)CNC(=O)[C@H](CC(C)C)NC(=O)CN)C(=O)O` had a Ki of 27 nM. Compound `CSCC[C@H](NC(=O)[C@@H](N)CO)C(=O)N[C@H](C(=O)NCC(=O)N[C@@H](CC(N)=O)C(=O)N[C@@H](Cc1c[nH]c2ccccc12)C(=O)N[C@@H](C)C(=O)N[C@@H](CCCCN)C(=O)N[C@H](C(=O)O)C(C)C)C(C)C` (H-SMVGNWAKV-OH; N-terminus and C-terminus assumed) came in with an IC50 of 158 nM and a Ki of 158 nM. Regarding `CC[C@H](C)[C@H](NC(=O)[C@H](Cc1c[nH]cn1)NC(=O)[C@@H](NC(=O)[C@H](CC(C)C)NC(=O)CNC(=O)[C@@H](NC(=O)[C@H](Cc1ccccc1)NC(=O)[C@@H](NC(=O)[C@@H](N)CO)C(C)C)[C@@H](C)O)[C@@H](C)CC)C(=O)O` (H-SVFTGLIHI-OH), the 50% inhibitory concentration (IC50) was 101 nM. Consider `CC(C)C[C@H](NC(=O)[C@H](C)NC(=O)[C@H](CC(C)C)NC(=O)[C@H](CC(C)C)NC(=O)[C@@H](N)Cc1ccccc1)C(=O)N[C@@H](CC(C)C)C(=O)N[C@@H](CO)C(=O)N[C@@H](CS)C(=O)N[C@@H](CC(C)C)C(=O)N[C@H](C(=O)O)[C@@H](C)O`, for which the half-inhibitory concentration (IC50) amounted to 132 nM and the Ki amounted to 132 nM. In turn, `CC[C@H](C)[C@H](N)C(=O)N[C@@H](CCSC)C(=O)N[C@@H](C)C(=O)N[C@@H](CCCCN)C(=O)N[C@@H](CC(N)=O)C(=O)N[C@@H](CCC(=O)O)C(=O)N[C@H](C(=O)N[C@@H](Cc1ccccc1)C(=O)N[C@@H](CS)C(=O)N[C@H](C(=O)O)C(C)C)C(C)C` (H-IMAKNEVFCV-OH; N-terminus and C-terminus assumed) registered an IC50 of 199 nM and a Ki of 199 nM. On to `CC[C@H](C)[C@H](NC(=O)[C@@H](NC(=O)[C@@H](N)CC(N)=O)[C@@H](C)CC)C(=O)N[C@@H](CCSC)C(=O)N[C@@H](Cc1ccc(O)cc1)C(=O)N[C@@H](C)C(=O)N1CCC[C@H]1C(=O)N[C@H](C(=O)N[C@@H](CC(C)C)C(=O)O)[C@@H](C)O`, for which the half-inhibitory concentration (IC50) worked out at 70 nM and the Ki was found to be 70 nM.

In turn, `CC[C@H](C)[C@H](N)C(=O)N[C@@H](CCSC)C(=O)N[C@@H](Cc1ccc(O)cc1)C(=O)N[C@@H](C)C(=O)N1CCC[C@H]1C(=O)N[C@H](C(=O)N[C@@H](CC(C)C)C(=O)N[C@@H](Cc1c[nH]c2ccccc12)C(=O)N[C@@H](C)C(=O)O)[C@@H](C)O` returned an IC50 of 46 nM and a Ki of 46 nM. For `CC(C)C[C@H](NC(=O)[C@H](CS)NC(=O)[C@H](CO)NC(=O)[C@H](CC(C)C)NC(=O)[C@H](CC(C)C)NC(=O)[C@H](C)NC(=O)[C@H](CC(C)C)NC(=O)[C@H](CC(C)C)NC(=O)[C@@H](N)Cc1ccccc1)C(=O)O`, the IC50 was found to be 136 nM and the Ki turned out to be 136 nM. On to `CC[C@H](C)[C@H](N)C(=O)N[C@@H](CCSC)C(=O)N[C@@H](C)C(=O)N[C@@H](CS)C(=O)N[C@@H](CCSC)C(=O)N[C@@H](CO)C(=O)N[C@@H](C)C(=O)N[C@@H](CC(=O)O)C(=O)N[C@@H](CC(C)C)C(=O)O` (H-IMACMSADL-OH; N-terminus and C-terminus assumed), for which the IC50 came out at 66 nM and affinity was put at a Ki of 66 nM. The compound `CC(C)C[C@H](NC(=O)[C@H](Cc1ccccc1)NC(=O)[C@@H](NC(=O)[C@H](CO)NC(=O)CNC(=O)[C@H](CS)NC(=O)[C@H](CC(C)C)NC(=O)[C@@H](N)CC(=O)O)C(C)C)C(=O)N[C@H](C(=O)O)C(C)C` (H-DLCGSVFLV-OH; N-terminus and C-terminus assumed) registered a Ki of 789 nM. In turn, `CC[C@H](C)[C@H](NC(=O)[C@@H](N)Cc1ccccc1)C(=O)N1CCC[C@H]1C(=O)N[C@H](C(=O)N[C@@H](CCC(=O)O)C(=O)N[C@@H](CO)C(=O)N[C@@H](CCSC)C(=O)N[C@@H](CCC(=O)O)C(=O)N[C@H](C(=O)O)[C@@H](C)O)C(C)C` (H-FIPVESMET-OH) yielded a Ki of 934 nM. `CC[C@H](C)[C@H](NC(=O)[C@H](CS)NC(=O)CNC(=O)[C@H](CC(C)C)NC(=O)[C@H](CC(C)C)NC(=O)CN)C(=O)N[C@H](C(=O)N[C@H](C(=O)N[C@@H](CO)C(=O)N[C@@H](CC(C)C)C(=O)O)[C@@H](C)O)[C@@H](C)CC` came in with an IC50 of 26 nM and a Ki of 26 nM. On to `CC(C)C[C@H](NC(=O)[C@H](CC(C)C)NC(=O)[C@@H]1CCCN1C(=O)[C@@H](NC(=O)[C@@H]1CCCN1C(=O)CNC(=O)[C@H](Cc1c[nH]cn1)NC(=O)[C@H](CC(C)C)NC(=O)[C@@H](N)[C@@H](C)O)[C@@H](C)O)C(=O)O`, for which the IC50 is 68 nM and the affinity, expressed as Ki, was 68 nM. Turning to `CC[C@H](C)[C@H](NC(=O)[C@@H](NC(=O)[C@H](CC(C)C)NC(=O)[C@H](CS)NC(=O)[C@H](CO)NC(=O)[C@H](CC(C)C)NC(=O)[C@@H](N)CC(C)C)[C@@H](C)O)C(=O)N1CCC[C@H]1C(=O)N[C@@H](C)C(=O)O`, the IC50 turned out to be 12 nM and the Ki was 12 nM. With `CSCC[C@H](NC(=O)CN)C(=O)N[C@@H](Cc1ccccc1)C(=O)N[C@@H](CC(=O)O)C(=O)N[C@@H](CO)C(=O)N[C@@H](CO)C(=O)N[C@H](C(=O)N[C@@H](CC(C)C)C(=O)N[C@@H](CS)C(=O)O)C(C)C` (H-GMFDSSVLC-OH), the IC50 was determined as 114 nM and the Ki was 71 nM. `CC(C)C[C@H](NC(=O)[C@@H](NC(=O)[C@H](CO)NC(=O)[C@@H](NC(=O)[C@@H](N)C(C)C)C(C)C)[C@@H](C)O)C(=O)N1CCC[C@H]1C(=O)N[C@@H](CCC(N)=O)C(=O)N[C@@H](C)C(=O)N[C@H](C(=O)O)C(C)C` (H-VVSTLPQAV-OH; N-terminus and C-terminus assumed) gave a Ki of 884 nM. Same read-out and setting: then `CC[C@H](C)[C@H](NC(=O)[C@H](Cc1ccc(O)cc1)NC(=O)[C@H](CC(C)C)NC(=O)[C@@H](N)CCCNC(=N)N)C(=O)NCC(=O)NCC(=O)N1CCC[C@H]1C(=O)N[C@@H](CC(C)C)C(=O)N[C@H](C(=O)O)[C@@H](C)O` (H-RLYIGGPLT-OH), with 536 nM.

These data come from patent US20060093617A1, “Peptides for inducing a CTL and/or HTL response to hepatitis C virus” (Innogenetics, N.V., priority 2004, published 2006).
